Assay results reported in patent publication US20150157739A1, “Imidazo[2,1]thiazol-3-one derivatives” (Hoffmann-La Roche Inc., priority 2012, published 2015).

How the values were obtained:
[1] = target: T1, aggregated recombinant human-microtubule associated protein Tau (Homo sapiens, UniProt P10636); test: Thiazin-red R displacement fluorescence assay on aggregated Tau; type: binding; conditions: displacement of Thiazin-red R from aggregated Tau; compound 0.3 nM to 10000 nM; 30 min room temperature; Ex 531 nm/Em 595 nm
T1 construct: Recombinant human-microtubule associated protein Tau purified from E. coli is aggregated at a concentration of 5 μM with Arachidonic Acid (100 μM) in Tris 10 mM pH8, 24 h at 37° C
Experimental: (§1) Assay for Determination of […] for Tau and A-Beta
(§2) Recombinant human-microtubule associated protein Tau purified from E. coli is aggregated at a concentration of 5 μM with Arachidonic Acid (100 μM) in Tris 10 mM pH8, 24 h at 37° C. Synthetic Aβ40 is aggregated at a concentration of 50 μM with Arachidonic Acid (100 μM) in Tris 10 mM pH8, for three days at 37° C., under shaking at 150 rpm.
(§3) A saturation analysis of Thiazin-red R to the aggregated proteins is done to determine the affinity (Kd) of the Thiazin-red R to the aggregated protein.
(§4) Thiazin-red R will be added at the concentration corresponding to the Kd to the respective aggregated protein binding site, to induce a fluorescent signal that can be inhibited by the addition of a displacer compound.
(§5) In parallel, auto fluorescence of the compound is measured together with the aggregated proteins, but without Thiazin-red R. As negative control, ligand and aggregated protein is used and as positive control, Thiazin-red R, reference compound with known activity and aggregated protein is used.
(§6) Assay is performed in Perkin Elmer OptiPlate 384, black, 45 ul assay volume, assay buffer is DPBS no CaCl2 no MgCl2 (GIBCO N. 14020). Tested compounds are diluted in DMSO and 2 μl is added to the assay ([…]). Assay is started by the addition of the aggregated protein (competitive condition). Plates are shortly shacked (1 min with Sterico variomag teleshake) and incubated for 30 min at room temperature. Measurement are done with En:Vision (Perkin Elmer), at Excitation 531 nm/Emission 595 nm.

[2] = target: T2, aggregated synthetic Aβ40 (Homo sapiens, UniProt P05067); test: Thiazin-red R displacement fluorescence assay on aggregated A-beta; type: binding; conditions: displacement of Thiazin-red R from aggregated Aβ40; compound 0.3 nM to 10000 nM; 30 min room temperature; Ex 531 nm/Em 595 nm
T2 construct: Synthetic Aβ40 is aggregated at a concentration of 50 μM
Experimental: as §1, §2, §3, §4, §5, §6

T1 sequence (P10636 whole entry): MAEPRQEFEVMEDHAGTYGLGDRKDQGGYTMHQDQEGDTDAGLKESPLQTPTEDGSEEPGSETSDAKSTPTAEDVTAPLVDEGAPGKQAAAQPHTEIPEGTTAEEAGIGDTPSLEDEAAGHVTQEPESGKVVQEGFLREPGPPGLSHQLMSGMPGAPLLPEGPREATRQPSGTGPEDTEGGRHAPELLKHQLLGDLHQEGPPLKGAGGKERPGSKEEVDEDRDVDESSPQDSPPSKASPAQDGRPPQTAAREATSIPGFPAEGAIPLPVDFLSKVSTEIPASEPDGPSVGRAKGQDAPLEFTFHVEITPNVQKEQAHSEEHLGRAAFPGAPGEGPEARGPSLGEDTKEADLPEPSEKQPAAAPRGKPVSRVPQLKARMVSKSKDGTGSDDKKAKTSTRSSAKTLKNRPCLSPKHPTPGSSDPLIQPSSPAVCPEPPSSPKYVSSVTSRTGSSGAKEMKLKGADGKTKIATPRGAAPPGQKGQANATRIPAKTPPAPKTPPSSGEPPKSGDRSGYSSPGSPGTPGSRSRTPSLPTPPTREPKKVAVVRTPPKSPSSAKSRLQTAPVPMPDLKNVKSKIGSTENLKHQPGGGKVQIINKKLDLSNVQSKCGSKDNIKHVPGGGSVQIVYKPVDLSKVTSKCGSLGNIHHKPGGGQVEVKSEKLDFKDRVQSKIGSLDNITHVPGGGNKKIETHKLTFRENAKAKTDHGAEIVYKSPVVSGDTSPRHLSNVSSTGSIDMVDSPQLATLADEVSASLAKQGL
T2 sequence (P05067 672-711 limits assumed): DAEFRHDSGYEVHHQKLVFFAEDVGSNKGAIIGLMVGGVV

Structure (SMILES)	IC50 [1] [nM]	IC50 [2] [nM]
COc1cc(/C=c2\sc3nc(-c4ccc(C(=O)NCCCF)cc4)cn3c2=O)cc(Cl)c1O (single isomer, unassigned) [Example 133]	2	86
COc1cc(/C=c2\sc3nc(-c4ccncc4)cn3c2=O)cc(OC)c1O [Example 1, 2-[1-(4-Hydroxy-3,5-dimethoxy-phenyl)-meth-(Z)-ylidene]-6-pyridin-4-yl-imidazo[2,1-b]thiazol-3-one]	5	93
COc1cc(/C=c2\sc3nc(-c4ccc(Cl)cc4)cn3c2=O)cc(OC)c1O [Example 2, 6-(4-Chloro-phenyl)-2-[1-(4-hydroxy-3,5-dimethoxy-phenyl)-meth-(Z)-ylidene]-imidazo[2,1-b]thiazol-3-one]	2	7
COc1cc(/C=c2\sc3nc(-c4ccc(Cl)cc4)cn3c2=O)ccc1O [Example 3, 6-(4-Chloro-phenyl)-2-[1-(4-hydroxy-3-methoxy-phenyl)-meth-(Z)-ylidene]-imidazo[2,1-b]thiazol-3-one]	49	215
COc1cc(/C=c2\sc3nc(-c4ccc(Cl)cc4)cn3c2=O)cc(F)c1O [Example 4, 6-(4-Chloro-phenyl)-2-[1-(3-fluoro-4-hydroxy-5-methoxy-phenyl)-meth-(Z)-ylidene]-imidazo[2,1-b]thiazol-3-one]	11	393
CCOc1cc(/C=c2\sc3nc(-c4ccc(Cl)cc4)cn3c2=O)ccc1O [Example 5, 6-(4-Chloro-phenyl)-2-[1-(3-ethoxy-4-hydroxy-phenyl)-meth-(Z)-ylidene]-imidazo[2,1-b]thiazol-3-one]	178	1160
COc1cc(/C=c2\sc3nc(-c4ccc(Cl)cc4)cn3c2=O)cc(Cl)c1O [Example 6, 6-(4-Chloro-phenyl)-2-[1-(3-chloro-4-hydroxy-5-methoxy-phenyl)-meth-(Z)-ylidene]-imidazo[2,1-b]thiazol-3-one]	2	32
COc1cc(/C=c2\sc3nc(-c4ccc(Cl)cc4)cn3c2=O)cc(Br)c1O [Example 7, 6-(4-Chloro-phenyl)-2-[1-(3-bromo-4-hydroxy-5-methoxy-phenyl)-meth-(Z)-ylidene]-imidazo[2,1-b]thiazol-3-one]	2	18
COc1cc(/C=c2\sc3nc(-c4ccc(Cl)cc4)cn3c2=O)cc(O)c1O [Example 8, 6-(4-Chloro-phenyl)-2-[1-(3,4-dihydroxy-5-methoxy-phenyl)-meth-(Z)-ylidene]-imidazo[2,1-b]thiazol-3-one]	5	18
COc1cc(/C=c2\sc3nc(-c4ccccc4C)cn3c2=O)cc(F)c1O [Example 9, 2-[1-(3-Fluoro-4-hydroxy-5-methoxy-phenyl)-meth-(Z)-ylidene]-6-o-tolyl-imidazo[2,1-b]thiazol-3-one]	105	706
COc1cc(/C=c2\sc3nc(-c4ccccc4C)cn3c2=O)cc(Cl)c1O [Example 10, 2-[1-(3-Chloro-4-hydroxy-5-methoxy-phenyl)-meth-(Z)-ylidene]-6-o-tolyl-imidazo[2,1-b]thiazol-3-one]	28	1220
COc1cc(/C=c2\sc3nc(-c4ccccc4C)cn3c2=O)ccc1O [Example 11, 2-[1-(4-hydroxy-3-methoxy-phenyl)-meth-(Z)-ylidene]-6-o-tolyl-imidazo[2,1-b]thiazol-3-one]	837	1280
COc1cc(/C=c2\sc3nc(-c4ccnc(C)c4)cn3c2=O)ccc1O [Example 12, 2-[1-(4-Hydroxy-3-methoxy-phenyl)-meth-(Z)-ylidene]-6-(2-methyl-pyridin-4-yl)-imidazo[2,1-b]thiazol-3-one]	79	> 10000
COc1cc(/C=c2\sc3nc(-c4cc(C)nc(C)c4)cn3c2=O)ccc1O [Example 13, 2-[1-(4-Hydroxy-3-methoxy-phenyl)-meth-(Z)-ylidene]-6-(2,6-dimethyl-pyridin-4-yl)-imidazo[2,1-b]thiazol-3-one]	91	> 10000
COc1ccc(-c2nc3s/c(=C\c4cc(Cl)c(O)c(OC)c4)c(=O)n3c2C)cc1 [Example 14, 2-[1-(3-Chloro-4-hydroxy-5-methoxy-phenyl)-meth-(Z)-ylidene]-6-(4-methoxy-phenyl)-5-methyl-imidazo[2,1-b]thiazol-3-one]	37	466
COc1ccc(-c2nc3s/c(=C\c4cc(F)c(O)c(OC)c4)c(=O)n3c2C)cc1 [Example 15, 2-[1-(3-Fluoro-4-hydroxy-5-methoxy-phenyl)-meth-(Z)-ylidene]-6-(4-methoxy-phenyl)-5-methyl-imidazo[2,1-b]thiazol-3-one]	53	437
COc1cc(/C=c2\sc3nc(-c4ccnc(C)c4)cn3c2=O)cc(OC)c1O [Example 16, 2-[1-(4-Hydroxy-3,5-dimethoxy-phenyl)-meth-(Z)-ylidene]-6-(2-methyl-pyridin-4-yl)-imidazo[2,1-b]thiazol-3-one]	8	32
COc1cc(/C=c2\sc3nc(-c4cc(C)nc(C)c4)cn3c2=O)cc(OC)c1O [Example 17, 2-[1-(4-Hydroxy-3,5-dimethoxy-phenyl)-meth-(Z)-ylidene]-6-(2,6-dimethyl-pyridin-4-yl)-imidazo[2,1-b]thiazol-3-one]	5	68
COc1cc(/C=c2\sc3nc(-c4cccc(OC(F)(F)F)c4)cn3c2=O)cc(OC)c1O [Example 18, 2-[1-(4-Hydroxy-3,5-dimethoxy-phenyl)-meth-(Z)-ylidene]-6-(3-trifluoromethoxy-phenyl)-imidazo[2,1-b]thiazol-3-one]	4	114
COc1cc(/C=c2\sc3nc(-c4cccc(OC(F)(F)F)c4)cn3c2=O)cc(F)c1O [Example 35, 2-[1-(3-Fluoro-4-hydroxy-5-methoxy-phenyl)-meth-(Z)-ylidene]-6-(3-trifluoromethoxy-phenyl)-imidazo[2,1-b]thiazol-3-one]	13	
COc1cc(/C=c2\sc3nc(-c4cccc(C#N)c4)cn3c2=O)cc(F)c1O [Example 38, 3-{2-[1-(3-Fluoro-4-hydroxy-5-methoxy-phenyl)-meth-(Z)-ylidene]-3-oxo-2,3-dihydro-imidazo[2,1-b]thiazol-6-yl}-benzonitrile]		> 10000
COc1cc(/C=c2\sc3nc(-c4cccc(C#N)c4)cn3c2=O)cc(OC)c1O [Example 50, 3-{2-[1-(4-Hydroxy-3,5-dimethoxy-phenyl)-meth-(Z)-ylidene]-3-oxo-2,3-dihydro-imidazo[2,1-b]thiazol-6-yl}-benzonitrile]	7	
COc1ccccc1-c1cn2c(=O)/c(=C/c3cc(Cl)c(O)c(OC)c3)sc2n1 [Example 55, 2-[1-(3-Chloro-4-hydroxy-5-methoxy-phenyl)-meth-(Z)-ylidene]-6-(2-methoxy-phenyl)-imidazo[2,1-b]thiazol-3-one]	103	
COc1cc(/C=c2\sc3nc(-c4cc(F)ccc4F)cn3c2=O)cc(Cl)c1O [Example 56, 2-[1-(3-Chloro-4-hydroxy-5-methoxy-phenyl)-meth-(Z)-ylidene]-6-(2,5-difluoro-phenyl)-imidazo[2,1-b]thiazol-3-one]	27	
COc1cc(/C=c2\sc3nc(-c4cccc(C#N)c4)cn3c2=O)cc(F)c1O [Example 73, 3-{2-[1-(3-Fluoro-4-hydroxy-5-methoxy-phenyl)-meth-(Z)-ylidene]-3-oxo-2,3-dihydro-imidazo[2,1-b]thiazol-6-yl}-benzonitrile]		13
COc1cc(/C=c2\sc3nc(-c4ccccc4OCCF)cn3c2=O)cc(Cl)c1O [Example 83, 2-[1-(3-Chloro-4-hydroxy-5-methoxy-phenyl)-meth-(Z)-ylidene]-6-(2-(2-fluoroethoxyl)phenyl)-imidazo[2,1-b]thiazol-3-one]	173	
COc1cc(/C=c2\sc3nc(-c4ccccc4OCCOCCOCCF)cn3c2=O)cc(Cl)c1O [Example 96, 2-[1-(3-Chloro-4-hydroxy-5-methoxy-phenyl)-meth-(Z)-ylidene]-6-(2-{2-[2-(2-fluoro-ethoxy)-ethoxy]-ethoxy}-phenyl)-imidazo[2,1-b]thiazol-3-one]	102	
COc1cc(/C=c2\sc3nc(-c4cccc(C(=O)N(C)CCF)c4)cn3c2=O)cc(Cl)c1O [Example 120, 3-{2-[1-(3-Chloro-4-hydroxy-5-methoxy-phenyl)-meth-(Z)-ylidene]-3-oxo-2,3-dihydro-imidazo[2,1-b]thiazol-6-yl}-N-(2-fluoro-ethyl)-N-methyl-benzamide]	49	
